Data from ChEMBL document CHEMBL1268998, “Detection of Rap1A as a yessotoxin binding protein from blood cell membranes” (Bioorg Med Chem Lett, 2010).

How the values were obtained:
Type in all cases: cell membranes
[1] = target: T1, Ras-related protein Rap-1A (Homo sapiens, UniProt P62834); test: Binding affinity to RAP1A in human RBC membrane by surface plasmon resonance analysis with inverted configuration
T1 sequence (P62834 whole entry): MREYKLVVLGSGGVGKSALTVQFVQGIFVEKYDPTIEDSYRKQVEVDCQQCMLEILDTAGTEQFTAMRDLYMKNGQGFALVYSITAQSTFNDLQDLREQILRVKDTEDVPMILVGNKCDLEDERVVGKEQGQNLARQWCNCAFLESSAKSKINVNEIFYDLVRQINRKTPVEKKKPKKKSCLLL

[2] = target: T1, Ras-related protein Rap-1A; test: Binding affinity to RAP1A in human RBC membrane by Western blot analysis
[3] = target: T1, Ras-related protein Rap-1A; test: Binding affinity to RAP1A in human RBC membrane by surface plasmon resonance analysis

Structure (SMILES) | Kd [1] [µM] | Kd [2] [µM] | Kd [3] [µM]
C=CCC(=C)/C=C/[C@@](C)(O)[C@H]1O[C@@H]2C[C@@H]3O[C@@H]4C[C@@H]5O[C@@H]6C[C@@H]7O[C@@H]8C[C@@H]9O[C@@H]%10C[C@@H]%11O[C@](C)(CCO)[C@@H](O)C[C@H]%11O[C@H]%10C[C@H]9O[C@H]8CC[C@@]7(C)O[C@@]6(C)CC[C@H](C)[C@H]5O[C@H]4[C@@H](O)[C@@]3(C)O[C@H]2CC1=C [DESULFO-YESSOTOXIN] | 0.5 |  | 
C=CCC(=C)/C=C/[C@@](C)(O)[C@H]1O[C@@H]2C[C@@H]3O[C@@H]4C[C@@H]5O[C@@H]6C[C@@H]7O[C@@H]8C[C@@H]9O[C@@H]%10C[C@@H]%11O[C@](C)(CCOS(=O)(=O)O)[C@@H](OS(=O)(=O)O)C[C@H]%11O[C@H]%10C[C@H]9O[C@H]8CC[C@@]7(C)O[C@@]6(C)CC[C@H](C)[C@H]5O[C@H]4C[C@@]3(C)O[C@H]2CC1=C [YESSOTOXIN] |  | 4 | 4
